A short description of series [1]: Ionophore activity. The following applies: larger number indicates weaker ionophore activity.
Series [2] has as its system p53^R175H. Put plainly: Immunofluorescence with conformation-specific antibodies PAB1620/PAB240. The series is classed as cell-based.
Series [3] addresses Human Norepinephrine Transporter (Homo sapiens, UniProt P23975). Description: CEREP safety screen, norepinephrine transporter. The following applies: 10 μM. In kind it is binding.
Series [4] addresses Human hERG (Homo sapiens, UniProt Q12809). Description: CEREP safety screen, hERG [3H]-dofetilide. The series is classed as binding. The following applies: 10 μM.
The subject of series [5] is H1299 cells (p53 null). Description: Oxidative stress detection, CellROX Green, flow cytometry. The series is classed as cell-based. The following applies: 0.75 μM compound, 24 h, relative to ZMC1. Background: In flow cytometry, cells or beads pass a laser one at a time.
For series [6], the system named is TOV-112D (p53^R175H). Description: Cell growth inhibition assay. The series is classed as cell-based. The following applies: Homo sapiens, TOV112D, 72 h, read-out: EC50 TOV-112D.
In series [7] the test system is Rat Sodium Channel site 2. Put plainly: CEREP safety screen, sodium channel site 2. In kind it is binding. The following applies: 10 μM.
The conditions of series [8]: cited from earlier work.
Series [9] in a line: Caco-2 permeability. The series is classed as in vitro ADME. The following applies: human. On the technique in general: Passage across Caco-2 layers is used to estimate intestinal permeability.
A short description of series [10]: Hydrolytic stability in SGF and PBS. The following applies: 6 h. The series is classed as physicochemical.
The subject of series [11] is TOV-112D cells. Description: Combination of C85 with γ-irradiation or etoposide, cell growth inhibition. The series is classed as cell-based. The following applies: Homo sapiens, TOV112D, read-out: EC50, C85 only.
The subject of series [12] is p53 wild type and p53 null cell lines. Description: Cell kill in p53 wild type and p53 null cell lines. In kind it is cell-based. The following applies: allele selectivity, Suppl. Figure S1.

These results are taken from paper PMC9278656 (Journal of medicinal chemistry, 2021).

As a reminder, the EC50 is the concentration needed to bring the measured effect to its halfway point. What is called Papp is a coefficient for how fast a substance crosses the barrier. Low readings indicate slow passage, high ones fast passage.

Each structure is given as a SMILES string. Where a name gives a salt, the structure may show the parent alone. Read-outs that look alike come from different tables or passages of the source. A value given as a limit tells only on which side of the number the result lay.

Chain of Human Norepinephrine Transporter (P23975 whole entry): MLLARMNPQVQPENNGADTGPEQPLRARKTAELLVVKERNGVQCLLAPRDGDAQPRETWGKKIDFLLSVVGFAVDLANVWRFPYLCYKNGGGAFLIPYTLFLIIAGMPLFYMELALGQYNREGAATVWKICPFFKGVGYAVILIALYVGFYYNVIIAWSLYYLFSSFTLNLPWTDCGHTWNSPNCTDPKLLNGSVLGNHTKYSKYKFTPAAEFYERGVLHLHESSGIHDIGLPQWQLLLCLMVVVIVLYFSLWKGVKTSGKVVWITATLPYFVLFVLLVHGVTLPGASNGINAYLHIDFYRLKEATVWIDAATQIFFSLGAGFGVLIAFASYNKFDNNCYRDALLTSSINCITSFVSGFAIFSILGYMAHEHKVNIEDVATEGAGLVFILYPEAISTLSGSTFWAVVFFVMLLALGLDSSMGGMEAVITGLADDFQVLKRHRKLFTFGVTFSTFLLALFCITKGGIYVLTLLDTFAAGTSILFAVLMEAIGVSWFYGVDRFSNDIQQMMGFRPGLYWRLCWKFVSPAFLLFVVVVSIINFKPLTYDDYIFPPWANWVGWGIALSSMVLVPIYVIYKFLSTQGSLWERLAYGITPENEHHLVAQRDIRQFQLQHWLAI
Chain of Human hERG (Q12809 whole entry): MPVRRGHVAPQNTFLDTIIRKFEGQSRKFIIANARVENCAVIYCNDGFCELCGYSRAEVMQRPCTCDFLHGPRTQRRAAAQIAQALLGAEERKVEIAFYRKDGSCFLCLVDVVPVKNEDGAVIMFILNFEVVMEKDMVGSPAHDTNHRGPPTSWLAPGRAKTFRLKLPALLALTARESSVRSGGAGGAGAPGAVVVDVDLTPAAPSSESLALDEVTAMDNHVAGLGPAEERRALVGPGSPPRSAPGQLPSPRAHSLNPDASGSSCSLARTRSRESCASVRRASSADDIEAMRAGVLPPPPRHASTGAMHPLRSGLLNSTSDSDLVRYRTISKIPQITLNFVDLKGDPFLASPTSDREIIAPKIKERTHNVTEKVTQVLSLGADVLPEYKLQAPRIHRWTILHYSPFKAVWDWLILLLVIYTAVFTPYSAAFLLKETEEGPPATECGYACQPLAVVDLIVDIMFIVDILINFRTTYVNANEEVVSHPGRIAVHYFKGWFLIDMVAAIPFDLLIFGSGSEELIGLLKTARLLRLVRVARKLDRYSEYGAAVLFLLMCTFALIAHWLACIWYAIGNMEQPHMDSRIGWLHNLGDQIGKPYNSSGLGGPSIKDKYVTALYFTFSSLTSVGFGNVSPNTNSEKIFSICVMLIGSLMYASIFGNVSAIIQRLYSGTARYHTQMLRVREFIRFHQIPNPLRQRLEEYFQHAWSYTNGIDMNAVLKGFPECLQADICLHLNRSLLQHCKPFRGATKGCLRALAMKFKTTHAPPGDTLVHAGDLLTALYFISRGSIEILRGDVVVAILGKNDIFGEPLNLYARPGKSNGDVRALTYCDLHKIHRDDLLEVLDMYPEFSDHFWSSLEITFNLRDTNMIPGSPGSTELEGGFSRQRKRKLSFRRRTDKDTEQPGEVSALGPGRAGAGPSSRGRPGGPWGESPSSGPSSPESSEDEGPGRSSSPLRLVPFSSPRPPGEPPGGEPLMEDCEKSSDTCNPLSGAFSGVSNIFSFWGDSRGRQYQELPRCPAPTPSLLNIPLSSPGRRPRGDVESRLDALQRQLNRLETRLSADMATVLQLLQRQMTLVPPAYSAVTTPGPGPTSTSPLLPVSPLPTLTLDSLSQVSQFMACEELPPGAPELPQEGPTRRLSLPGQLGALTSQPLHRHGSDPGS

As for `C/C(=N\NC(=S)N1CCC1)c1ccccc1` [A9, (E)-N′-(1-Phenylethylidene)azetidine-1-carbothiohydrazide], the “Ionophore Ji drug/Ji DMSO” value in [1] was 11.6 -log[mol/m^2s].
Consider `C/C(=N\Nc1nc2ccccc2s1)c1cc(N(C)C)ccn1` [C21, (E)-2-(1-(2-(Benzo[d]thiazol-2-yl)hydrazineylidene)ethyl)-N,N-dimethylpyridin-4-amine], for which the “Refolding p53^R175H → wild type” value in series [2] was “YES”. Further, the “Ionophore Ji drug/Ji DMSO” value in series [1] was 11.6 -log[mol/m^2s].
As to `C/C(=N\Nc1nc2ccccc2o1)c1cc(OCCN(C)C)ccn1` [C35, (E)-2-((2-(1-(2-(Benzo[d]oxazol-2-yl)hydrazineylidene)ethyl)pyridin-4-yl)oxy)-N,N-dimethylethan-1-amine HCl], the “Refolding p53^R175H → wild type” value in [2] is recorded as “YES”.
In the case of `C/C(=N\Nc1nc2ccccc2n1CCN(C)C)c1ccccn1` [C27, (E)-N,N-Dimethyl-2-(2-(2-(1-(pyridin-2-yl)ethylidene)hydrazineyl)-1H-benzo[d]imidazol-1-yl)ethan-1-amine HCl], the “Refolding p53^R175H → wild type” value in [2] is “YES”. Further, the “Ionophore Ji drug/Ji DMSO” value in [1] was 11.6 -log[mol/m^2s].
On to `C/C(=N\NC(=S)NC1CCN(c2ccccn2)CC1)c1ccccn1` [A4, (E)-2-(1-(Pyridin-2-yl)ethylidene)-N-(1-(pyridin-2-yl)piperidin-4-yl)hydrazine-1-carbothioamide], for which the “Ionophore Ji drug/Ji DMSO” value in series [1] was 14.5 -log[mol/m^2s].
On the same count and under the same terms, the figure for `C/C(=N\NC(=O)N1CCC1)c1ccccn1` [A6, (E)-N′-(1-(Pyridin-2-yl)ethylidene)azetidine-1-carbohydrazide] is 12.9 -log[mol/m^2s].
Take `C/C(=N\Nc1nc2ccccc2s1)c1ncccn1` [C77, (E)-2-(2-(1-(Pyrimidin-2-yl)ethylidene)hydrazineyl)benzo[d]thiazole AcOH]: the “Activity against the norepinephrine transporter, in words” value in [3] is given as “showed activity”. Moreover, in series [1], the “Ionophore Ji drug/Ji DMSO” value was 11.8 -log[mol/m^2s].
Turning to `C/C(=N\Nc1nccn1C)c1ccccn1` [C78, 2-(1-(2-(1-Methyl-1H-imidazol-2-yl)hydrazono)ethyl)pyridine HCl], the “Refolding p53^R175H → wild type” value in [2] is listed as “YES”. The “Ionophore Ji drug/Ji DMSO” value in series [1] was 11.8 -log[mol/m^2s].
`C/C(=N\Nc1nc2ccccc2n1CCN1CCCC1)c1ccccn1` [C69, (E)-2-(2-(1-(Pyridin-2-yl)ethylidene)hydrazineyl)-1-(2-(pyrrolidin-1-yl)ethyl)-1H-benzo[d]imidazole HCl]: in series [2], the “Refolding p53^R175H → wild type” value was “YES”. The “hERG inhibition, in words” value in [4] is recorded as “strong hERG inhibition”. For the same molecule, the “ROS (ROS/ZMC1 ROS)” value in series [5] turned out to be 1.2. Further, in series [6], the EC50 came out at 93 nM. In addition, the “Activity against the sodium channel, in words” value in series [7] is recorded as “showed activity”. In addition, the “Activity against the norepinephrine transporter, in words” value in series [3] was “showed activity”. Moreover, the “Ionophore Ji drug/Ji DMSO” value in series [1] was 11.6 -log[mol/m^2s].
As to `C/C(=N\Nc1ccc2ccccc2n1)c1ccccn1` [C22, (E)-2-(2-(1-(Pyridin-2-yl)ethylidene)hydrazineyl)quinoline], the “Refolding p53^R175H → wild type” value in series [2] is reported as “YES”. Besides, the “Ionophore Ji drug/Ji DMSO” value in [1] is 11.6 -log[mol/m^2s].
Turning to `C/C(=N\Nc1nc2ccccc2n1CCN1CCOCC1)c1ccccn1` [C42, (E)-4-(2-(2-(2-(1-(Pyridin-2-yl)ethylidene)hydrazineyl)-1H-benzo[d]imidazol-1-yl)ethyl)morpholine HCl], the “Refolding p53^R175H → wild type” value in series [2] was “YES”. Moreover, the “hERG inhibition, in words” value in series [4] was “strong hERG inhibition”. For the same molecule, the “ROS (ROS/ZMC1 ROS)” value in series [5] turned out to be 1.0. Moreover, the “Ionophore Ji drug/Ji DMSO” value in series [1] was 11.6 -log[mol/m^2s].
As to `C/C(=N\Nc1nc2ccccc2s1)c1cc(OCCN2CCN(C)CC2)ccn1` [C64, (E)-2-(2-(1-(4-(2-(4-Methylpiperazin-1-yl)ethoxy)pyridin-2-yl)ethylidene)hydrazineyl)benzo[d]thiazole HCl], the “Ionophore Ji drug/Ji DMSO” value in series [1] is 11.6 -log[mol/m^2s].
`COCCOc1ccc2nc(N/N=C(\C)c3ccccn3)sc2c1` [C23, (E)-6-(2-Methoxyethoxy)-2-(2-(1-(pyridin-2-yl)ethylidene)hydrazineyl)benzo[d]thiazole AcOH]: in [2], the “Refolding p53^R175H → wild type” value is reported as “YES”. The “Ionophore Ji drug/Ji DMSO” value in series [1] was 11.6 -log[mol/m^2s].
Regarding `C/C(=N\NC(=S)N1CCC1)c1cnccn1` [A10, (E)-N′-(1-(Pyrazin-2-yl)ethylidene)azetidine-1-carbothiohydrazide], the “Refolding p53^R175H → wild type” value in series [2] is given as “YES”. Also, in series [6], the EC50 amounted to 22 nM. Also, the “Ionophore Ji drug/Ji DMSO” value in series [1] was 11.8 -log[mol/m^2s].
Take `CS/C(=N\N=C(/C)c1ccccn1)N1CCC1` [A5, Methyl (Z)-N-((E)-1-(Pyridin-2-yl)ethylidene)azetidine-1-carbohydrazonothioate]: the “Ionophore Ji drug/Ji DMSO” value in series [1] is 12.4 -log[mol/m^2s].
Still for that read-out and setting: the figure for `CC(C)(C)/C(=N\NC(=S)N1CCC1)c1ccccn1` [A13, (E)-N′-(2,2-Dimethyl-1-(pyridin-2-yl)propylidene)azetidine-1-carbothiohydrazide] is 14.4 -log[mol/m^2s].
`C/C(=N\Nc1nc2ccccc2n1C)c1ccccn1` [C9, (E)-1-Methyl-2-(2-(1-(pyridin-2-yl)ethylidene)hydrazinyl)-1H-benzo[d]imidazole]: in series [2], the “Refolding p53^R175H → wild type” value was “YES”. In addition, the “hERG inhibition, in words” value in [4] is “strong hERG inhibition”. In addition, in series [8], the Aqueous solubility entry is “low aqueous solubility”. For the same molecule, the “Ionophore Ji drug/Ji DMSO” value in series [1] is 11.6 -log[mol/m^2s].
`C/C(=N\NC(=S)N(C)C)c1ccccn1` [A1, (E)-N,N-Dimethyl-2-(1-(pyridin-2-yl)ethylidene)hydrazine-1-carbothioamide]: the “Refolding p53^R175H → wild type” value in series [2] is “YES”. Moreover, in series [9], the Papp at 90 min, 5 μM is 7.3 ± 0.1 ×10⁻⁶ cm/s. Besides, in series [1], the “Ionophore Ji drug/Ji DMSO” value was 12.8 -log[mol/m^2s].
With `C/C(=N\NC(=S)N1CCC1)c1cccc(C)n1` [A11, (E)-N′-(1-(6-Methylpyridin-2-yl)ethylidene)azetidine-1-carbothiohydrazide], the “Refolding p53^R175H → wild type” value in series [2] was “YES”. Also, the “Ionophore Ji drug/Ji DMSO” value in [1] is 12.6 -log[mol/m^2s].
On to `C/C(=N\Nc1nc2ccccc2n1C)c1ncccn1` [C89, (E)-1-Methyl-2-(2-(1-(pyrimidin-2-yl)ethylidene)hydrazineyl)-1H-benzo[d]imidazole HCl], for which the “hERG inhibition, in words” value in series [4] is on record as “strong hERG inhibition”. Moreover, the “Ionophore Ji drug/Ji DMSO” value in [1] is 12.0 -log[mol/m^2s].
For `C/C(=N\Nc1nc2ccccc2n1CCN1CCC(F)(F)C1)c1ccccn1` [C85, (E)-1-(2-(3,3-Difluoropyrrolidin-1-yl)ethyl)-2-(2-(1-(pyridin-2-yl)ethylidene)hydrazineyl)-1H-benzo[d]imidazole HCl], the “Refolding p53^R175H → wild type” value in [2] is “could induce a wild-type conformational change and YES”. The “hERG inhibition, in words” value in [4] was “potent hERG inhibition”. For the same molecule, the Compound remaining in series [10] (SGF pH 1–2, 37 °C) is given as over 82%; in series [10] (SGF pH 1–2, room temperature) it was over 92%. Also, the EC50 in series [11] (light or radiation study, 72 h) came out at 710 nM; in series [11] it was 570 nM. In series [5], the “ROS (ROS/ZMC1 ROS)” value is 0.8. The “Ionophore Ji drug/Ji DMSO” value in series [1] was 12.2 -log[mol/m^2s].
In the case of `C/C(=N\Nc1nc2ccccc2o1)c1ccccn1` [C2, (E)-2-(2-(1-(Pyridin-2-yl)ethylidene)hydrazinyl)benzo[d]oxazole], the “Refolding p53^R175H → wild type” value in series [2] was “induced a wild-type conformational change and YES”. The “Cell kill in p53 wild type and p53 null cell lines” value in series [12] is “almost no cell kill”. The apparent permeability (Papp) at 90 min, 5 μM in [9] amounted to 10.6 ± 0.5 ×10⁻⁶ cm/s. The Aqueous solubility result in [8] was “low aqueous solubility”. The “Ionophore Ji drug/Ji DMSO” value in [1] was 11.8 -log[mol/m^2s].
Regarding `C/C(=N\NC(=S)N1CCC1)c1ncccc1C` [A12, (E)-N′-(1-(3-Methylpyridin-2-yl)ethylidene)azetidine-1-carbothiohydrazide], in series [6], the EC50 turned out to be 11 nM. Also, the “Ionophore Ji drug/Ji DMSO” value in series [1] was 11.6 -log[mol/m^2s].
Regarding `C/C(=N\NC(=S)N1CCC1)c1cc(N(C)C)ccn1` [A14, (E)-N′-(1-(4-(Dimethylamino)pyridin-2-yl)ethylidene)azetidine-1-carbothiohydrazide], in [1], the “Ionophore Ji drug/Ji DMSO” value is 12.5 -log[mol/m^2s].
Take `C/C(=N\Nc1nc2ccccc2s1)c1cc(OCCN(C)C)ccn1` [C28, (E)-2-((2-(1-(2-(Benzo[d]thiazol-2-yl)hydrazineylidene)ethyl)pyridin-4-yl)oxy)-N,N-dimethylethan-1-amine HCl]: the “Refolding p53^R175H → wild type” value in [2] is “YES”. Further, the “hERG inhibition, in words” value in series [4] is “strong hERG inhibition”. Also, in series [3], the “Activity against the norepinephrine transporter, in words” value is listed as “showed activity”. Also, the “Ionophore Ji drug/Ji DMSO” value in series [1] is 11.6 -log[mol/m^2s].
As for `C/C(=N\Nc1nc2ccccc2s1)c1cc(OCCO)ccn1` [C61, (E)-2-((2-(1-(2-(Benzo[d]thiazol-2-yl)hydrazineylidene)ethyl)pyridin-4-yl)oxy)ethan-1-ol], in series [1], the “Ionophore Ji drug/Ji DMSO” value was 11.6 -log[mol/m^2s].
As to `COC/C(=N\Nc1nc2ccccc2s1)c1ccccn1` [C65, (Z)-2-(2-(2-Methoxy-1-(pyridin-2-yl)ethylidene)hydrazineyl)benzo[d]thiazole], the “Refolding p53^R175H → wild type” value in series [2] was “YES”. The “Ionophore Ji drug/Ji DMSO” value in series [1] is 11.6 -log[mol/m^2s].
